Results published in patent US11560388B2, “Anthelmintic aza-benzothiophene and aza-benzofuran compounds” (Boehringer Ingelheim Vetmedica GmbH, priority 2019, dated 2023).

How the values were obtained:
[1] = test system: L1 Haemonchus contortus larvae; assay: Screening of activity against Haemonchus contortus (larval development L1 to L3, dose response); type: cell-based; conditions: 96 h, read-out: EC50 (development of the larvae from L1 to L3)
[2] = test system: Dirofilaria immitis; assay: In vivo efficacy against Dirofilaria immitis in immunodeficient NSG mice; conditions: vs control group
[3] = test system: Haemonchus contortus; assay: In vivo efficacy against Haemonchus contortus in Mongolian jird (Meriones unguiculatus)
[4] = test system: Trichostrongylus colubriformis; assay: In vivo efficacy against Trichostrongylus colubriformis in Mongolian jird (Meriones unguiculatus)
[5] = test system: microfilariae of Dirofilaria immitis; assay: Screening of activity against microfilaria of Dirofilaria immitis (motility, dose response); type: cell-based; conditions: 72 h, read-out: EC50 (motility of the microfilaria)
[6] = Study #2, NSG mice, 25 mg/kg oral
[7] = Study #2, NSG mice, 50 mg/kg oral
[8] = Study 3, jird, 25 mg/kg oral gavage
[9] = Study 4, jird, 5 mg/kg oral gavage
[10] = Study #3, NSG mice, 25 mg/kg oral
[11] = Study 4, jird, 25 mg/kg oral gavage
[12] = Study 2, jird, 25 mg/kg oral gavage
[13] = Study 1, jird, 25 mg/kg oral gavage, necropsy 3 days after treatment
[14] = Study 1, jird, 10 mg/kg, positive control
[15] = Study 2, jird, 10 mg/kg, positive control
[16] = Study 3, jird, 10 mg/kg, positive control
[17] = Study 4, jird, 10 mg/kg, positive control

Question: With `O=C(N[C@H]1CCOc2ccccc21)c1sc2c(-c3cc(F)cc(F)c3)cccc2c1C1=CCOCC1` [Compound 102-1] as the molecule, how does the EC50 [1] read?
Answer: The EC50 was 100 to 10000 nM.

Question: For `C=C(C)c1c(C(=O)N[C@H]2CCOc3ccccc32)sc2c(-c3cc(F)cc(F)c3)ccnc12` [Compound 119], which EC50 [1] is on record?
Answer: The EC50 was 100 to 10000 nM.

Question: What about the “% Reduction worms” value [2, 6] of the same molecule?
Answer: The value was 67%.

Question: And the “% Reduction worms” value [2, 7]?
Answer: Its value is 37%.

Question: What does the source list for `CC(C)c1c(C(=O)N[C@H]2CCOc3ccccc32)sc2c(-c3cc(F)cc(F)c3)ccnc12` [Compound 120]?
Answer: % Reduction worms [2, 6]: 47%; % Reduction worms [2, 7]: 33%

Question: `Cc1cc(F)cc(C)c1-c1ccnc2c(C(C)C)c(C(=O)N[C@H]3CCOc4ccccc43)sc12` [Compound 201, N-[(4S)-3,4-dihydro-2H-1-benzopyran-4-yl]-7-(4-fluoro-2,6-dimethylphenyl)-3-isopropylthieno[3,2-b]pyridine-2-carboxamide] was tested. Which EC50 [1] did it give?
Answer: The EC50 was 100 to 10000 nM.

Question: How did the “% Reduction worms” value ([2]; Study #1, NSG mice, 50 mg/kg oral at Days 1, 15, 30 post-infection) turn out when `CC(C)c1c(C(=O)N[C@H]2CCOc3ccccc32)sc2c(-c3cc(F)cc(F)c3)c(F)cnc12` [Compound 204] was run?
Answer: The value was 65%.

Question: What about the “% Reduction H. contortus” value [3, 8] of the same molecule?
Answer: The value was 100.0%.

Question: And the “% Reduction H. contortus” value [3, 9]?
Answer: The value was 50.1%.

Question: What about the “% Reduction T. columbriformis” value [4, 8] of the same molecule?
Answer: The value was 100.0%.

Question: What about the “% Reduction T. columbriformis” value [4, 9] of the same molecule?
Answer: Its value is 22.2%.

Question: How did the EC50 [5] turn out when `O=C(N[C@H]1CCOc2ccccc21)c1sc2c(-c3cc(F)cc(F)c3)ccnc2c1C(F)F` [Compound 205] was run?
Answer: Its EC50 is 100 to 10000 nM.

Question: And the EC50 [1]?
Answer: Its EC50 is 100 to 10000 nM.

Question: With `CC(C)c1c(C(=O)N[C@H]2CCOc3ccccc32)sc2c(-c3cccc(F)c3)ccnc12` [Compound 207] as the molecule, how does the “% Reduction worms” value [2, 10] read?
Answer: Its value is 55%.

Question: `CC(C)(C)c1c(C(=O)N[C@H]2CCOc3ccccc32)sc2c(-c3cc(F)cc(F)c3)ccnc12` [Compound 210] was tested. Which “% Reduction worms” value [2, 10] did it give?
Answer: The value was 55%.

Question: What about the “% Reduction H. contortus” value [3, 8] of the same molecule?
Answer: Its value is 100.0%.

Question: What about the “% Reduction T. columbriformis” value [4, 8] of the same molecule?
Answer: The value was 100.0%.

Question: `CC(C)c1c(C(=O)N[C@H]2CCOc3ccc(F)cc32)sc2c(-c3cc(Cl)cc(Cl)c3)ccnc12` [Compound 211] was tested. Which “% Reduction worms” value ([2]; Study #1, NSG mice, 25 mg/kg oral at Days 1, 15, 30 post-infection) did it give?
Answer: The value was 61%.

Question: And the “% Reduction H. contortus” value [3, 8]?
Answer: The value was 100.0%.

Question: And the “% Reduction T. columbriformis” value [4, 8]?
Answer: The value was 100.0%.

Question: With `CC(C)(F)c1c(C(=O)N[C@H]2CCOc3ccccc32)sc2c(-c3cc(Cl)cc(Cl)c3)ccnc12` [Compound 212] as the molecule, how does the “% Reduction worms” value ([2]; Study #1, NSG mice, 23 mg/kg (table) oral at Days 1, 15, 30 post-infection) read?
Answer: The value was 13%.

Question: How did the EC50 [5] turn out when `C[C@@H]1C[C@H](C)CN(c2ccnc3c(N4CCOCC4)c(C(=O)N[C@H]4CCOc5ccccc54)sc23)C1` [Compound 217] was run?
Answer: Its EC50 is 100 to 10000 nM.

Question: Which EC50 [5] does the source give for `CC(C)c1c(C(=O)N[C@H]2CCOc3ccccc32)sc2c(C3CCCCC3)ccnc12` [Compound 223] here?
Answer: The EC50 was < 10 nM.

Question: What about the EC50 [1] of the same molecule?
Answer: The EC50 was 100 to 10000 nM.

Question: For `O=C(N[C@H]1CCOc2ccccc21)c1sc2c(-c3cc(F)cc(F)c3)ccnc2c1C(F)(F)C(F)(F)F` [Compound 238], which EC50 [5] is on record?
Answer: The EC50 was < 10 nM.

Question: And the EC50 [1]?
Answer: The EC50 was 100 to 10000 nM.

Question: Which EC50 [1] does the source give for `C=C(C)c1c(C(=O)N[C@H]2CCOc3ccccc32)sc2c(-c3cc(F)cc(F)c3)cnnc12` [Compound 239-INT-1] here?
Answer: Its EC50 is 100 to 10000 nM.

Question: With `CC(C)c1c(C(=O)N[C@H]2CCOc3ccccc32)sc2c(C3(F)CCCCC3)ccnc12` [Compound 255, N-[(4S)-3,4-dihydro-2H-1-benzopyran-4-yl]-7-(1-fluorocyclohexyl)-3-isopropylthieno[3,2-b]pyridine-2-carboxamide] as the molecule, how does the EC50 [1] read?
Answer: The EC50 was 100 to 10000 nM.

Question: For `CC(C)c1c(C(=O)N[C@H]2CCOc3ccc(F)cc32)sc2c(-c3cc(F)cc(F)c3)ccnc12` [Compound 257], which “% Reduction worms” value [2, 10] is on record?
Answer: The value was 45%.

Question: For `CC(=O)c1c(C(=O)N[C@H]2CCOc3ccc(F)cc32)sc2c(-c3cc(Cl)cc(Cl)c3)ccnc12` [Compound 259-4], which EC50 [5] is on record?
Answer: Its EC50 is 100 to 10000 nM.

Question: Which results are given for `CC(C)(F)c1c(C(=O)N[C@H]2CCOc3ccc(F)cc32)sc2c(-c3cc(Cl)cc(Cl)c3)ccnc12` [Compound 259]?
Answer: % Reduction H. contortus [3, 11]: 100.0%; % Reduction T. columbriformis [4, 11]: 99.5%

Question: Which “% Reduction H. contortus” value [3, 11] does the source give for `CC(C)c1c(C(=O)N[C@H]2CCOc3ccc(F)cc32)sc2c(-c3cc(F)cc(F)c3)c(F)cnc12` [Compound 260] here?
Answer: The value was 23.5%.

Question: And the “% Reduction T. columbriformis” value [4, 11]?
Answer: The value was 45.8%.

Question: Which results are given for `CC(C)(O)c1c(C(=O)N[C@H]2CCOc3ccccc32)sc2c(-c3cc(Cl)cc(Cl)c3)c(F)cnc12` [Compound 263-8]?
Answer: EC50 [5]: < 10 nM; EC50 [1]: < 100 nM; % Reduction H. contortus [3, 12]: 99.8%; % Reduction H. contortus [3, 9]: 99.8%; % Reduction T. columbriformis [4, 12]: 100.0%; % Reduction T. columbriformis [4, 9]: 99.9%

Question: `CC(C)(F)c1c(C(=O)N[C@H]2CCOc3ccccc32)sc2c(-c3cc(Cl)cc(Cl)c3)c(F)cnc12` [Compound 263] was tested. Which “% Reduction H. contortus” value [3, 13] did it give?
Answer: Its value is 100.0%.

Question: And the “% Reduction T. columbriformis” value [4, 13]?
Answer: The value was 100.0%.

Question: What does the source list for `CC(C)(F)c1c(C(=O)N[C@H]2CCOc3ccccc32)sc2c(-c3cc(Cl)cc(Cl)c3)cncc12` [Compound 264, 7-(3,5-dichlorophenyl)-N-[(4S)-3,4-dihydro-2H-1-benzopyran-4-yl]-3-(2-fluoropropan-2-yl)thieno[3,2-c]pyridine-2-carboxamide]?
Answer: EC50 [5]: < 10 nM; EC50 [1]: < 100 nM

Question: With `CC(C)(O)c1c(C(=O)N[C@H]2CCOc3ccccc32)sc2c(-c3cc(Cl)cc(Cl)c3)cncc12` [Compound 264-0, 7-(3,5-dichlorophenyl)-N-[(4S)-3,4-dihydro-2H-1-benzopyran-4-yl]-3-(2-hydroxypropan-2-yl)thieno[3,2-c]pyridine-2-carboxamide] as the molecule, how does the EC50 [1] read?
Answer: The EC50 was < 100 nM.

Question: How did the EC50 [1] turn out when `CC(C)(O)c1c(C(=O)N[C@H]2CCOc3ccccc32)sc2c(-c3ccnc(Cl)c3)ccnc12` [Compound 268-4] was run?
Answer: Its EC50 is 100 to 10000 nM.

Question: With `C=C(C)c1c(C(=O)N[C@H]2CCOc3ccccc32)sc2c(-c3cc(Cl)cc(Cl)c3)ccnc12` [Compound 285] as the molecule, how does the “% Reduction H. contortus” value [3, 13] read?
Answer: The value was 100.0%.

Question: What about the “% Reduction T. columbriformis” value [4, 13] of the same molecule?
Answer: The value was 100.0%.

Question: Which results are given for `CC(C)c1c(C(=O)N[C@H]2CCOc3ccccc32)sc2c(-c3cc(F)cc(F)c3)c(Cl)cnc12` [Compound 310]?
Answer: EC50 [5]: 100 to 10000 nM; EC50 [1]: < 100 nM

Question: Which results are given for `c1ccc([C@H]2CN3CCSC3=N2)cc1` [Levamisole, levamisole, reference compound]?
Answer: % Reduction H. contortus [3, 14]: 98.4%; % Reduction H. contortus [3, 15]: 100.0%; % Reduction H. contortus [3, 16]: 100.0%; % Reduction H. contortus [3, 17]: 99.8%; % Reduction T. columbriformis [4, 14]: 89.1%; % Reduction T. columbriformis [4, 15]: 96.4%; % Reduction T. columbriformis [4, 16]: 100.0%; % Reduction T. columbriformis [4, 17]: 72.2%
